In US12673041B2, “4-aminobut-2-enamide derivatives and salt thereof” (TAIHO PHARMACEUTICAL CO., LTD., priority 2019, dated 2026):
Where two headings read alike, the source gives them in different places.

How the values were obtained:
[1] = biological target: Gppcp-bound recombinant K-Ras4B G12C mutant protein (amino acids 1-169, C51S/C80L/C118S) (Homo sapiens, UniProt P01116, C118S/C51S/C80L/G12C); test: KRASG12C binding assay (LC-MS compound binding rate); settings: test compound final concentration 0.5 μM, 25° C., 1 hour
How it was run: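 Gppcp-bound K-Ras4B G12C (aa 1-169, C51S/C80L/C118S) at 50 nM in 1×TBS, 0.1 mM TCEP, 0.25 mM MgCl2, 50 μM Gppcp was incubated 1 hour at 25° C with compound at 0.5 μM final. Intact-protein LC-MS gave binding rate as single-adduct signal over total KRAS signal, graded A (≥80%) to E (<20%).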

[2] = biological target: T1, GMPPNP-bound KRAS G12C protein and cRAF RAS-binding domain (cRAF-RBD) (Homo sapiens, UniProt P01116, G12C); test: Inhibitory activity on interaction between KRAS G12C and cRAF (Alpha technology); assay type: biochemical; settings: then cRAF-RBD, Alpha signal
T1 construct: made in house; host or cells: E. coli
How it was run: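 GMPPNP-loaded His-KRAS G12C (aa 1-169) preincubated 1 h at 25 °C with compound (pH 7.5 Tris, 1 mM MgCl2, TCEP, Tween 20), then cRAF-RBD (aa 50-132) and Alpha reagents added for 1.5 h at RT. Inhibition scaled between DMSO (0%) and GDP-bound KRAS (100%); IC50 by curve fitting.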

MIA PaCa-2 cells = test: Growth inhibition activity on KRAS-G12C mutant cell line (MIA PaCa-2); assay type: cell-based; settings: Homo sapiens, 72 h; MIA PaCa-2, 3-day culture, CellTiter-Glo 3D
Procedure: MIA PaCa-2 cells (given by Sumitomo Dainippon Pharma Co., Ltd.), which are a KRAS-G12C mutant human pancreas cancer cell line, were suspended in a 10% fetal bovine serum-containing RPMI1640 medium (manufactured by Fujifilm Wako Pure Chemical Corporation.). The cell suspension was seeded into each well of a 384-well U bottom microplate and cultured in an incubator containing 5% CO2 gas at 37° C. for 1 day. The compounds obtained in the “Preparation of Compounds” section were used as test compounds and were dissolved in DMSO, respectively, and each test compound was diluted with DMSO to give a concentration 500 times the final concentration. The resultant solution of the test compound in DMSO was diluted with the medium used for suspending cells and added to each well of the cell-culture plate to give a DMSO final concentration of 0.2%, followed by culture in an incubator containing 5% CO2 gas at 37° C. for another 3 days. The cell count after 3-day culture in the presence of the test compound was measured using CellTiter-Glo 3D Reagent (manufactured by Promega Corporation). All wells were added with CellTiter-Glo 3D Reagent and mixed for 10 minutes. 30 minutes after mixing, luminescence was measured by a plate reader. The growth inhibition rate was calculated from the following equation, and the concentration of the test compound at which 50% inhibition was achieved (IC50 (nM)) was determined. […] Growth Inhibition Rate (%)=(C−T)/(C)×100 • T: the emission intensity in a well into which a test compound was added. • C: the emission intensity in a well into which a test compound was not added.

[3] = GMPPNP-bound KRAS G12C incubated with compound at 25° C. for 1 hour, read-out: IC50

Question: For `CO[C@H]1CC[C@H](NC/C=C/C(=O)Nc2ccc(C(=O)c3ccc4c(-c5cc6nc7n(c6cc5C(F)(F)F)CCC7)cccn34)cc2C#N)CC1` [Example 31, (E)-N-(2-cyano-4-(8-(7-(trifluoromethyl)-2,3-dihydro-1H-benzo[d]pyrrolo[1,2-a]imidazol-6-yl)indolizine-3-carbonyl)phenyl)-4-(((1r,4r)-4-methoxycyclohexyl)amino)but-2-enamide], which binding rate [1] is on record?
Answer: Its binding rate is “A (A binding rate of 80% or more is rated “A”)”.

Question: And the IC50 [2, 3]?
Answer: Its IC50 is 26 nM.

Question: What about the IC50 (MIA PaCa-2 cells) of the same compound?
Answer: Its IC50 is 86 nM.

Question: How did the binding rate [1] turn out when `CCc1cc2c(cc1-c1cccc(NC(=O)c3ccc(NC(=O)/C=C/CN[C@H]4CC[C@H](OC)CC4)c(C#N)c3)c1)nc1n2CCC1` [Example 32, 3-cyano-N-(3-(7-ethyl-2,3-dihydro-1H-benzo[d]pyrrolo[1,2-a]imidazol-6-yl)phenyl)-4-((E)-4-(((1r,4r)-4-methoxycyclohexyl)amino)but-2-enamido)benzamide] was run?
Answer: The binding rate was “B (a binding rate of 60% or more and less than 80% is rated “B”)”.

Question: And the IC50 [2, 3]?
Answer: The IC50 was 27 nM.

Question: And the IC50 (MIA PaCa-2 cells)?
Answer: Its IC50 is 310 nM.

Question: How did the binding rate [1] turn out when `CCc1nc2cc(-c3cccn4c(C(=O)c5ccc(NC(=O)/C=C/CN[C@H]6CC[C@H](OC)CC6)c(C#N)c5)ccc34)c(C(F)(F)F)cc2n1C` [Example 33, (E)-N-(2-cyano-4-(8-(2-ethyl-1-methyl-6-(trifluoromethyl)-1H-benzo[d]imidazol-5-yl)indolizine-3-carbonyl)phenyl)-4-(((1r,4r)-4-methoxycyclohexyl)amino)but-2-enamide] was run?
Answer: The binding rate was “A (A binding rate of 80% or more is rated “A”)”.

Question: And the IC50 [2, 3]?
Answer: Its IC50 is 45 nM.

Question: And the IC50 (MIA PaCa-2 cells)?
Answer: The IC50 was 48 nM.

Question: For `CO[C@H]1CC[C@H](NC/C=C/C(=O)Nc2ccc(C(=O)Nc3cccc(-c4cc5nc6n(c5cc4C(F)(F)F)CCC6)n3)cc2C#N)CC1` [Example 34, 3-cyano-4-((E)-4-(((1r,4r)-4-methoxycyclohexyl)amino)but-2-enamido)-N-(6-(7-(trifluoromethyl)-2,3-dihydro-1H-benzo[d]pyrrolo[1,2-a]imidazol-6-yl)pyridin-2-yl)benzamide], which binding rate [1] is on record?
Answer: Its binding rate is “A (A binding rate of 80% or more is rated “A”)”.

Question: What about the IC50 [2, 3] of the same compound?
Answer: Its IC50 is 31 nM.

Question: What about the IC50 (MIA PaCa-2 cells) of the same compound?
Answer: Its IC50 is 92 nM.

Question: For `CO[C@H]1CC[C@H](NC/C=C/C(=O)Nc2ccc(C(=O)c3c[nH]c4c(-c5cc6nc7n(c6cc5C(F)(F)F)CCC7)cccc34)cc2C#N)CC1` [Example 35, (E)-N-(2-cyano-4-(7-(7-(trifluoromethyl)-2,3-dihydro-1H-benzo[d]pyrrolo[1,2-a]imidazol-6-yl)-1H-indole-3-carbonyl)phenyl)-4-(((1r,4r)-4-methoxycyclohexyl)amino)but-2-enamide], which binding rate [1] is on record?
Answer: Its binding rate is “A (A binding rate of 80% or more is rated “A”)”.

Question: What about the IC50 [2, 3] of the same compound?
Answer: Its IC50 is 19 nM.

Question: And the IC50 (MIA PaCa-2 cells)?
Answer: The IC50 was 39 nM.

Question: For `CO[C@H]1CC[C@H](NC/C=C/C(=O)Nc2ccc(C(=O)c3ccc4c(-c5cc6ncn(C)c6cc5C(F)F)cccn34)cc2C#N)CC1` [Example 36, (E)-N-(2-cyano-4-(8-(6-(difluoromethyl)-1-methyl-1H-benzo[d]imidazol-5-yl)indolizine-3-carbonyl)phenyl)-4-(((1r,4r)-4-methoxycyclohexyl)amino)but-2-enamide], which binding rate [1] is on record?
Answer: The binding rate was “A (A binding rate of 80% or more is rated “A”)”.

Question: What about the IC50 [2, 3] of the same compound?
Answer: The IC50 was 23 nM.

Question: What about the IC50 (MIA PaCa-2 cells) of the same compound?
Answer: The IC50 was 70 nM.

Question: Which binding rate [1] does the source give for `CCN(CC)[C@H]1CC[C@H](NC/C=C/C(=O)Nc2ccc(C(=O)Nc3cccc(-c4cc5nc6n(c5cc4C(F)(F)F)CCC6)n3)cc2C#N)CC1` [Example 37, 3-cyano-4-((E)-4-(((1r,4r)-4-(diethylamino)cyclohexyl)amino)but-2-enamido)-N-(6-(7-(trifluoromethyl)-2,3-dihydro-1H-benzo[d]pyrrolo[1,2-a]imidazol-6-yl)pyridin-2-yl)benzamide] here?
Answer: Its binding rate is “A (A binding rate of 80% or more is rated “A”)”.

Question: And the IC50 [2, 3]?
Answer: The IC50 was 12 nM.

Question: What about the IC50 (MIA PaCa-2 cells) of the same compound?
Answer: Its IC50 is 550 nM.

Question: For `CO[C@H]1CC[C@H](NC/C=C/C(=O)Nc2ccc(C(=O)c3cn(C)c4c(-c5cc6ncn(C)c6cc5C(F)(F)F)cccc34)cc2C#N)CC1` [Example 38, (E)-N-(2-cyano-4-(1-methyl-7-(1-methyl-6-(trifluoromethyl)-1H-benzo[d]imidazol-5-yl)-1H-indole-3-carbonyl)phenyl)-4-(((1r,4r)-4-methoxycyclohexyl)amino)but-2-enamide], which binding rate [1] is on record?
Answer: Its binding rate is “A (A binding rate of 80% or more is rated “A”)”.

Question: And the IC50 ([2]; IC50, GMPPNP-bound KRAS G12C incubated with compound at 25° C. for 1 hour)?
Answer: The IC50 was 67 nM.

Question: And the IC50 (MIA PaCa-2 cells)?
Answer: The IC50 was 88 nM.

Question: With `COc1cccc(Cl)c1-c1cccn2c(C(=O)c3ccc(NC(=O)/C=C/CN[C@H]4CC[C@H](OC)CC4)c(C#N)c3)ccc12` [Example 41, (E)-N-(4-(8-(2-chloro-6-methoxyphenyl)indolizine-3-carbonyl)-2-cyanophenyl)-4-(((1r,4r)-4-methoxycyclohexyl)amino)but-2-enamide] as the compound, how does the binding rate [1] read?
Answer: Its binding rate is “A (A binding rate of 80% or more is rated “A”)”.

Question: What about the IC50 [2, 3] of the same compound?
Answer: Its IC50 is 85 nM.

Question: What about the IC50 (MIA PaCa-2 cells) of the same compound?
Answer: Its IC50 is 370 nM.

Question: How did the binding rate [1] turn out when `Cn1cnc2cc(-c3cccn4c(C(=O)c5ccc(NC(=O)/C=C/[C@@H]6CCCN6)c(C#N)c5)ccc34)c(C(F)(F)F)cc21` [Example 44, (S,E)-N-(2-cyano-4-(8-(1-methyl-6-(trifluoromethyl)-1H-benzo[d]imidazol-5-yl)indolizine-3-carbonyl)phenyl)-3-(pyrrolidin-2-yl) acrylamide] was run?
Answer: Its binding rate is “A (A binding rate of 80% or more is rated “A”)”.

Question: What about the IC50 [2, 3] of the same compound?
Answer: The IC50 was 61 nM.

Question: And the IC50 (MIA PaCa-2 cells)?
Answer: Its IC50 is 350 nM.

Question: With `Cn1cnc2cc(-c3cccn4c(C(=O)c5cc(F)c(NC(=O)/C=C/CNC(C)(C)C)c(F)c5)ccc34)c(C(F)(F)F)cc21` [Example 49, (2E)-4-(tert-Butylamino)-N-(2,6-difluoro-4-{8-[1-methyl-6-(trifluoromethyl)-1H-1,3-benzodiazol-5-yl]indolizine-3-carbonyl}phenyl)but-2-enamide] as the compound, how does the binding rate [1] read?
Answer: The binding rate was “A (A binding rate of 80% or more is rated “A”)”.

Question: And the IC50 [2, 3]?
Answer: The IC50 was 31 nM.

Question: What about the IC50 (MIA PaCa-2 cells) of the same compound?
Answer: Its IC50 is 75 nM.

Question: `Cn1cnc2cc(-c3cccn4c(C(=O)c5ccc(NC(=O)/C=C/CNC(C)(C)C)c(F)c5)ccc34)c(C(F)(F)F)cc21` [Example 51, (2E)-4-(tert-Butylamino)-N-(2-fluoro-4-{8-[1-methyl-6-(trifluoromethyl)-1H-1,3-benzodiazol-5-yl]indolizine-3-carbonyl}phenyl)but-2-enamide] was tested. Which binding rate [1] did it give?
Answer: Its binding rate is “B (a binding rate of 60% or more and less than 80% is rated “B”)”.

Question: And the IC50 [2, 3]?
Answer: The IC50 was 95 nM.

Question: What about the IC50 (MIA PaCa-2 cells) of the same compound?
Answer: The IC50 was 170 nM.

Question: With `Cn1cnc2c(Cl)c(-c3cccn4c(C(=O)c5ccc(NC(=O)/C=C/CNC(C)(C)C)c(C#N)c5)ccc34)c(Cl)cc21` [Example 55, (E)-4-(tert-butylamino)-N-(2-cyano-4-(8-(4,6-dichloro-1-methyl-1H-benzo[d]imidazol-5-yl)indolizine-3-carbonyl)phenyl)but-2-enamide] as the compound, how does the binding rate [1] read?
Answer: The binding rate was “A (A binding rate of 80% or more is rated “A”)”.

Question: What about the IC50 [2, 3] of the same compound?
Answer: Its IC50 is 21 nM.

Question: And the IC50 (MIA PaCa-2 cells)?
Answer: Its IC50 is 140 nM.

Question: With `CO[C@H]1CC[C@H](NC/C=C/C(=O)Nc2ccc(C(=O)c3csc4c(-c5cc6ncn(C)c6cc5C)cccc34)cc2C#N)CC1` [Example 56, (E)-N-(2-cyano-4-(7-(1,6-dimethyl-1H-benzo[d]imidazol-5-yl)benzo[b]thiophene-3-carbonyl)phenyl)-4-(((1r,4r)-4-methoxycyclohexyl)amino)but-2-enamide] as the compound, how does the binding rate [1] read?
Answer: The binding rate was “A (A binding rate of 80% or more is rated “A”)”.

Question: What about the IC50 [2, 3] of the same compound?
Answer: Its IC50 is 86 nM.

Question: What about the IC50 (MIA PaCa-2 cells) of the same compound?
Answer: Its IC50 is 350 nM.

Question: What does the source list for `Cc1cc2c(ncn2C)c(Cl)c1-c1cccn2c(C(=O)c3ccc(NC(=O)/C=C/CNC(C)(C)C)c(C#N)c3)ccc12` [Example 59, (E)-4-(tert-butylamino)-N-(4-(8-(4-chloro-1,6-dimethyl-1H-benzo[d]imidazol-5-yl)indolizine-3-carbonyl)-2-cyanophenyl)but-2-enamide]?
Answer: binding rate [1]: A (A binding rate of 80% or more is rated “A”); IC50 [2, 3]: 19 nM; IC50 (MIA PaCa-2 cells): 64 nM

Question: How did the binding rate [1] turn out when `CO[C@H]1CC[C@H](NC/C=C/C(=O)Nc2ccc(C(=O)c3ccc4c(-c5c(C)cc6c(ncn6C)c5Cl)cccn34)cc2C#N)CC1` [Example 60, (E)-N-(4-(8-(4-chloro-1,6-dimethyl-1H-benzo[d]imidazol-5-yl)indolizine-3-carbonyl)-2-cyanophenyl)-4-(((1r,4r)-4-methoxycyclohexyl)amino)but-2-enamide] was run?
Answer: The binding rate was “A (A binding rate of 80% or more is rated “A”)”.

Question: What about the IC50 [2, 3] of the same compound?
Answer: Its IC50 is 20 nM.

Question: And the IC50 (MIA PaCa-2 cells)?
Answer: Its IC50 is 59 nM.
